We go through 17 compounds from PubChem BioAssay AID330 (DTP/NCI, 2004).

The test system of this test is P388 leukemia ip, CD2F1 mice, survival T/C. Nature of the test: NCI In Vivo Anticancer Drug Screen. Data for tumor model P388 Leukemia (intraperitoneal) in CD2F1 (CDF1) mice. The conditions noted are these: endpoint: median survival time, higher = longer survival. The gist of the method:
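Mice carrying the transplanted tumor received test compound or vehicle. Survival was recorded in each group, and the value is the treated-group measurement divided by that of the vehicle-treated control group.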

The mark [1] stands for this setting: dose: 6.25 mg/kg/injection, schedule: Q01DX009 (ip), vehicle: saline.
The mark [2] stands for this setting: dose: 60.0 mg/kg/injection, schedule: Q01DX005 (ip), vehicle: saline with Tween-80.
Setting [3] is: dose: 120.0 mg/kg/injection, schedule: Q01DX005 (ip), vehicle: saline with Tween-80.
Where [4] appears, read: dose: 100.0 mg/kg/injection, schedule: Q01DX005 (ip), vehicle: Klucel (hydroxypropylcellulose) (HPC).
Where [5] appears, read: dose: 50.0 mg/kg/injection, schedule: Q01DX005 (ip), vehicle: saline with Tween-80.
Where [6] appears, read: dose: 100.0 mg/kg/injection, schedule: Q01DX005 (ip), vehicle: saline with Tween-80.
Where [7] appears, read: dose: 200.0 mg/kg/injection, schedule: Q01DX005 (ip), vehicle: saline with Tween-80.

Several values for one entry are separate records, joined by “and”; a condition that tells them apart may be missing. Equal entries are not always repeated. Toxic doses and inconclusive results are not listed. Peptide text beside a SMILES is read from it. * marks the point of attachment. Cbz = O=C(OCc1ccccc1)*

`[Cl][Al]([Cl])[Cl]`: the T/C runs as follows: under setting [1], 100 % of control; (dose: 12.5 mg/kg/injection, schedule: Q01DX009 (ip), vehicle: saline sonified) 100 % of control; (dose: 12.5 mg/kg/injection, schedule: Q01DX009 (ip), vehicle: saline) 100 % of control; (dose: 25.0 mg/kg/injection, schedule: Q01DX009 (ip), vehicle: saline sonified) 90 % of control; (dose: 25.0 mg/kg/injection, schedule: Q01DX009 (ip), vehicle: saline) 95 % of control; (dose: 50.0 mg/kg/injection, schedule: Q01DX009 (ip), vehicle: saline sonified) 95 % of control. Also, the T/C (dose: 100.0 mg/kg/injection, schedule: Q04DX003 (ip), vehicle: saline) is 90 % of control; the T/C (dose: 200.0 mg/kg/injection, schedule: Q04DX003 (ip), vehicle: saline) is 95 % of control and 100 % of control; the T/C (dose: 400.0 mg/kg/injection, schedule: Q04DX003 (ip), vehicle: saline) was 86 % of control.

In the case of `CN1c2ccccc2C(=O)N2C(=O)CCC21C` (stereo not drawn), the T/C by setting is: under setting [2], 102 % of control; under setting [3], 88 % of control.

For the compound `CNc1ccc(Nc2cccc(C)c2)c2c1C(=O)c1ccccc1C2=O`, the T/C is, setting by setting: (dose: 50.0 mg/kg/injection, schedule: Q01DX009 (ip), vehicle: Klucel (hydroxypropylcellulose) (HPC)) 100 % of control; (dose: 100.0 mg/kg/injection, schedule: Q01DX009 (ip), vehicle: Klucel (hydroxypropylcellulose) (HPC)) 91 % of control; (dose: 200.0 mg/kg/injection, schedule: Q01DX009 (ip), vehicle: Klucel (hydroxypropylcellulose) (HPC)) 113 % of control.

For the compound `O=c1[nH]c(=O)n(C2OC(CO)C(O)C2O)cc1F` (stereo not drawn), the T/C is, setting by setting: (dose: 0.62 mg/kg/injection, schedule: Q01DX009 (ip), vehicle: saline) 179 % of control; (dose: 0.79 mg/kg/injection, schedule: Q01DX009 (ip), vehicle: saline) 157 % of control; (dose: 1.0 mg/kg/injection, schedule: Q01DX005 (ip), vehicle: saline) 158 % of control; (dose: 1.57 mg/kg/injection, schedule: Q01DX009 (ip), vehicle: saline) 169 % of control; (dose: 2.0 mg/kg/injection, schedule: Q01DX005 (ip), vehicle: saline) 172 % of control; (dose: 2.5 mg/kg/injection, schedule: Q01DX009 (ip), vehicle: saline) 176 % of control and 205 % of control. Besides, the T/C (dose: 3.89 mg/kg/injection, schedule: Q04DX003 (ip), vehicle: saline) was 157 % of control; the T/C (dose: 4.0 mg/kg/injection, schedule: Q01DX005 (ip), vehicle: saline) was 185 % of control; the T/C (dose: 5.0 mg/kg/injection, schedule: Q01DX009 (ip), vehicle: saline) was 189 % of control; the T/C (dose: 6.48 mg/kg/injection, schedule: Q04DX002 (ip), vehicle: saline) is 150 % of control; the T/C (dose: 6.48 mg/kg/injection, schedule: Q04DX003 (ip), vehicle: saline) was 159 % of control; the T/C (dose: 10.8 mg/kg/injection, schedule: Q04DX002 (ip), vehicle: saline) was 160 % of control. Also, the T/C by setting is: (dose: 10.8 mg/kg/injection, schedule: Q04DX003 (ip), vehicle: saline) 175 % of control; (dose: 18.0 mg/kg/injection, schedule: Q04DX003 (ip), vehicle: saline) 186 % of control.

For `O=C1c2ccccc2C2=Cc3ccccc3C(O)N12` (stereo not drawn), the T/C under setting [2] was 104 % of control; the T/C under setting [3] was 100 % of control; the T/C (dose: 240.0 mg/kg/injection, schedule: Q01DX005 (ip), vehicle: saline with Tween-80) is 100 % of control.

As to `C/C(=N\NC(=S)N1CCCC1)c1ncccn1`, the T/C by setting is: (dose: 12.5 mg/kg/injection, schedule: Q04DX003 (ip), vehicle: Klucel (hydroxypropylcellulose) (HPC)) 108 % of control; (dose: 25.0 mg/kg/injection, schedule: Q04DX003 (ip), vehicle: Klucel (hydroxypropylcellulose) (HPC)) 108 % of control; (dose: 50.0 mg/kg/injection, schedule: Q04DX003 (ip), vehicle: Klucel (hydroxypropylcellulose) (HPC)) 112 % of control.

Turning to `O=C(CNc1ccc(Cl)cc1)c1ccc(Cl)cc1`, the T/C was 107 % of control (dose: 50.0 mg/kg/injection, schedule: Q01DX005 (ip), vehicle: Klucel (hydroxypropylcellulose) (HPC)); 99 % of control under setting [4]; 90 % of control (dose: 200.0 mg/kg/injection, schedule: Q01DX005 (ip), vehicle: Klucel (hydroxypropylcellulose) (HPC)).

For the compound `COc1cc(C=C2C(=O)C=CC2=O)cc(OC)c1O`, the T/C (dose: 1.25 mg/kg/injection, schedule: Q04DX002 (ip), vehicle: saline with Tween-80) was 102 % of control; the T/C (dose: 2.5 mg/kg/injection, schedule: Q04DX002 (ip), vehicle: saline with Tween-80) is 103 % of control; the T/C (dose: 5.0 mg/kg/injection, schedule: Q04DX002 (ip), vehicle: saline with Tween-80) was 102 % of control.

For `CC1CN=C(CCc2ccc(NC(=O)c3ccc(C(=O)Nc4ccc(CCC5=NCC(C)N5)cc4)cc3)cc2)N1` (stereo not drawn), the T/C (dose: 12.5 mg/kg/injection, schedule: Q01DX005 (ip), vehicle: Klucel (hydroxypropylcellulose) (HPC)) is 108 % of control; the T/C (dose: 25.0 mg/kg/injection, schedule: Q01DX005 (ip), vehicle: Klucel (hydroxypropylcellulose) (HPC)) was 108 % of control; the T/C under setting [4] was 160 % of control.

Turning to `[N-]=[N+]=CC(=O)C1(c2ccccc2)OC1c1ccccc1` (stereo not drawn), the T/C by setting is: (dose: 25.0 mg/kg/injection, schedule: Q01DX005 (ip), vehicle: saline with Tween-80) 91 % of control; under setting [5], 86 % of control; under setting [6], 94 % of control; under setting [7], 86 % of control.

Regarding `N#CCSCC(=O)c1ccccc1`, the T/C under setting [5] is 105 % of control, the T/C under setting [6] was 105 % of control and the T/C under setting [7] is 112 % of control.

With `CN(C)C1C(O)C2Oc3c(cc(O)c4c3C(=O)c3cc5c(c(O)c3C4=O)C(OCC3COC(C)(C)O3)CC(C)(O)C5)C(C)(O2)C1O` (stereo not drawn), the T/C (dose: 2.0 mg/kg/injection, schedule: Q01DX009 (ip), vehicle: other) was 105 % of control; the T/C (dose: 4.0 mg/kg/injection, schedule: Q01DX009 (ip), vehicle: other) was 117 % of control; the T/C (dose: 8.0 mg/kg/injection, schedule: Q01DX009 (ip), vehicle: other) is 123 % of control; the T/C (dose: 16.0 mg/kg/injection, schedule: Q01DX009 (ip), vehicle: other) is 123 % of control.

Turning to `BrP(Cc1ccccc1-c1ccccc1CP(Br)(c1ccccc1)(c1ccccc1)c1ccccc1)(c1ccccc1)(c1ccccc1)c1ccccc1`, the T/C was 103 % of control (dose: 1.56 mg/kg/injection, schedule: Q01DX009 (ip), vehicle: saline); 102 % of control (dose: 3.12 mg/kg/injection, schedule: Q01DX009 (ip), vehicle: saline); 100 % of control and 103 % of control under setting [1].

For the compound `CSc1nc2ncnn2c(=O)[nH]1`, the T/C by setting is: (dose: 12.5 mg/kg/injection, schedule: Q01DX009 (ip), vehicle: saline with Tween-80) 100 % of control; (dose: 25.0 mg/kg/injection, schedule: Q01DX009 (ip), vehicle: saline with Tween-80) 99 % of control; under setting [5], 98 % of control; (dose: 50.0 mg/kg/injection, schedule: Q01DX009 (ip), vehicle: saline with Tween-80) 100 % of control; under setting [6], 105 % of control; (dose: 100.0 mg/kg/injection, schedule: Q01DX009 (ip), vehicle: saline with Tween-80) 100 % of control. In addition, the T/C under setting [7] is 103 % of control.

For `CC(NC(=O)C(Cc1ccc(O)cc1)NC(=O)C(C)NC(=O)OCc1ccccc1)C(=O)O` (stereo not drawn) (Cbz-Ala-Tyr-Ala-OH; configuration not given here), the T/C by setting is: under setting [5], 100 % of control; under setting [6], 104 % of control; under setting [7], 99 % of control.

For `CCCCCCCCCCC(=O)CCCCC`, the T/C by setting is: (dose: 100.0 mg/kg/injection, schedule: Q04DX003 (ip), vehicle: other) 104 % of control; (dose: 200.0 mg/kg/injection, schedule: Q04DX003 (ip), vehicle: other) 109 % of control; (dose: 400.0 mg/kg/injection, schedule: Q04DX003 (ip), vehicle: other) 113 % of control.

As to `COc1cc2c[n+]3c4c(cccc4c2cc1OC)CC3`, the T/C is 108 % of control (dose: 25.0 mg/kg/injection, schedule: Q01DX009 (ip), vehicle: water); 118 % of control (dose: 50.0 mg/kg/injection, schedule: Q01DX009 (ip), vehicle: water); 114 % of control (dose: 100.0 mg/kg/injection, schedule: Q01DX009 (ip), vehicle: water).
